Patent publication US6489338B2, “Imidazopyridine and imidazopyrimidine antiviral agents” (Bristol-Myers Squibb Company, priority 2000, dated 2002)

System: respiratory syncytial virus Long strain
Test: Antiviral activity against respiratory syncytial virus, MTT cell protection assay in HEp-2 cells
Type: cell-based
Details: HEp-2 cells infected with RSV Long strain, MTT staining
Protocol: The antiviral activity of these compounds against respiratory syncytial virus was determined in HEp-2 (ATCC CCL 23) cells that were seeded in 96 well microtiter plates at 1.5×10^4 cells/100 μL/well in DMEM (Dulbecco's Modified Eagle's Medium) supplemented with penicillin, streptomycin, glutamine, and 10% fetal bovine serum. The cells were incubated overnight at 37° C., the culture medium was removed, and cells were infected (100 μL volume in medium containing 2% fetal bovine serum) with respiratory syncytial virus Long strain at 5000 plaque forming units/mL. The compounds, 100 μL at appropriate dilution, were added to the cells 1 hour post infection. After incubation for 4 days at 37° C., the plates were stained with MTT solution (3-[4,5-dimethlythiazol-2-yl]-2,5-diphenyltetrazolium bromide) and incubated for 4 hours at 37° C. The media was aspirated from the cells and 100 μL/well of acidified isopropanol (per liter: 900 mL isopropanol, 100 mL Triton X100, and 4 mL conc. HCl) was added. Plates were incubated for 15 minutes at room temperature with shaking, and an optical density (OD 540) reading at 540 nanometer (nm) was obtained. The optical density reading is proportional to the number of viable cells. The increase in the number of viable cells reflects the protective, antiviral activity of the compound. […]

NC(=O)c1ncn([C@@H]2O[C@H](CO)[C@@H](O)[C@H]2O)n1 [Ribavirin]
cell protection (at 2.5 μg/mL (corresponding to 10.2 μM)): 100% | EC50 (human respiratory syncytial virus, compound added 1 hour post infection, 4 days at 37° C., read-out: EC50 (concentration that produces 50% cell protection)): 3000 nM
